# The source made the active and inactive calls.
# Assays:
# Estrogen receptor beta [1] = molecular target: T1, Estrogen receptor beta (Homo sapiens, UniProt Q92731);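 note: recombinant ER-beta bound to coactivator SRC1 peptide in presence of estradiol agonist; inhibitors block coactivator peptide binding and lower the FRET signal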
# Estrogen receptor beta [2] = molecular target: T1, Estrogen receptor beta; test: blockers of SRC-3 recruitment to ERβ – biochemical, ELISA, streptavidin-HRP readout, orthogonal assay, confirmation (AID 1060)
# Protein Tat = molecular target: T2, Protein Tat (Human immunodeficiency virus type 1 group M subtype B (isolate HXB2)(HIV-1), UniProt P04608); type: functional;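 note: tat binding to TAR RNA read out by fluorescence polarization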
# T2 sequence (P04608 whole entry): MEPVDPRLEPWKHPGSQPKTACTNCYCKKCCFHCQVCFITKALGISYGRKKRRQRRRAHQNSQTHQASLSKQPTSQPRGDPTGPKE
# Protein RecA = molecular target: T3, Protein RecA (Mycobacterium tuberculosis, UniProt P9WHJ3); test: Fluorescence Cell-Free Homogeneous Dose Retest to Identify Inhibitors of RecA-Intein Splicing Activity. [Related pubchem assays (depositor defined):AID2097, AID2223, AID489010, AID492950]; type: functional
# T3 sequence (P9WHJ3 whole entry): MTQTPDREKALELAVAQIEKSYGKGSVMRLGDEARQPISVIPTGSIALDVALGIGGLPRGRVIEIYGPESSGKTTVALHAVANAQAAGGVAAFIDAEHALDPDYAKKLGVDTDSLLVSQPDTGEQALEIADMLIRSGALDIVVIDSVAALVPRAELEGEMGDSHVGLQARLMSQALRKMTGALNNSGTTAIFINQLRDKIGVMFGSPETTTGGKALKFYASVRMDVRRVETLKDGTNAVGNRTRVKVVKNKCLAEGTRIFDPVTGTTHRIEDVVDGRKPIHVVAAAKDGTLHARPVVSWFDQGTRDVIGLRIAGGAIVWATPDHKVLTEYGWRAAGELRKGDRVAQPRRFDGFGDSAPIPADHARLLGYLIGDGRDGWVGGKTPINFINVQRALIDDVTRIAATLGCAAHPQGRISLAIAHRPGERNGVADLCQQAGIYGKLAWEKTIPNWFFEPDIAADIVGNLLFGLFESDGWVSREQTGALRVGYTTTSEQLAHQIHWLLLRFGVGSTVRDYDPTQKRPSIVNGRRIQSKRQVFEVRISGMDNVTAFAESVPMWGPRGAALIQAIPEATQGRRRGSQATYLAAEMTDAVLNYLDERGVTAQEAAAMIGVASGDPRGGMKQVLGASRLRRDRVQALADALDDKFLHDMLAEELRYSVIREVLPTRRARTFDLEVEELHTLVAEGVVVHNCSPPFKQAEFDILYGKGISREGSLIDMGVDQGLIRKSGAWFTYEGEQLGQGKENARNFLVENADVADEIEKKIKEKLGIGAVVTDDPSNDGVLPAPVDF
# [3] = molecular target: T4, Replicative DNA helicase DnaB (Mycobacterium tuberculosis, UniProt P9WMR3); test: DnaB intein splicing inhibitors, dose response, biochemical, cell-free fluorescence (AID 449749); type: functional
# T4 sequence (P9WMR3 whole entry): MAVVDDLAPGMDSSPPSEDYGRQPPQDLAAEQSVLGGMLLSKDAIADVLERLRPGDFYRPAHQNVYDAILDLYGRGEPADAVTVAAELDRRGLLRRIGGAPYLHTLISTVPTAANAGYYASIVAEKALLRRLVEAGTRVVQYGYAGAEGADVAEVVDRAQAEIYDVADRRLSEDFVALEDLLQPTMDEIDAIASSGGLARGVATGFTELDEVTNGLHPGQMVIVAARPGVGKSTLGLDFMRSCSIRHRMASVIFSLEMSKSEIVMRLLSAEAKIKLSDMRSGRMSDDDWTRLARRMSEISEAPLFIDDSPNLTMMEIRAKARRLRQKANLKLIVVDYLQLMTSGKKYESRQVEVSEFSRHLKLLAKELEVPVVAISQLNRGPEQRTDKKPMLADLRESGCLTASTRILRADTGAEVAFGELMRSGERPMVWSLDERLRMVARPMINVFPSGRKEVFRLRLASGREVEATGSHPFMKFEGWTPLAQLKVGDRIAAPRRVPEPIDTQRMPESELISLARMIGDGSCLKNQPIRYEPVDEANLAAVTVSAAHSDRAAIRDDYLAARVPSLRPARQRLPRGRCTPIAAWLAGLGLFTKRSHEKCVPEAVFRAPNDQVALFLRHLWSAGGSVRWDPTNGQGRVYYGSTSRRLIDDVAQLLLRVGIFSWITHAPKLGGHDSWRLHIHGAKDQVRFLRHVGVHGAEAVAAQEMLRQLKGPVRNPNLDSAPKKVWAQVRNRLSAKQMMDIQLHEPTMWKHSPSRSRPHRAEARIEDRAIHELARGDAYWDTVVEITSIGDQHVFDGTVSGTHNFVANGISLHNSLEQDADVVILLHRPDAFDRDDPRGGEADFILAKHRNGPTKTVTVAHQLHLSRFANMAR
# [4] = molecular target: T5, Apoptotic protease-activating factor 1 (Homo sapiens, UniProt O14727); type: functional
# T5 sequence (O14727 whole entry): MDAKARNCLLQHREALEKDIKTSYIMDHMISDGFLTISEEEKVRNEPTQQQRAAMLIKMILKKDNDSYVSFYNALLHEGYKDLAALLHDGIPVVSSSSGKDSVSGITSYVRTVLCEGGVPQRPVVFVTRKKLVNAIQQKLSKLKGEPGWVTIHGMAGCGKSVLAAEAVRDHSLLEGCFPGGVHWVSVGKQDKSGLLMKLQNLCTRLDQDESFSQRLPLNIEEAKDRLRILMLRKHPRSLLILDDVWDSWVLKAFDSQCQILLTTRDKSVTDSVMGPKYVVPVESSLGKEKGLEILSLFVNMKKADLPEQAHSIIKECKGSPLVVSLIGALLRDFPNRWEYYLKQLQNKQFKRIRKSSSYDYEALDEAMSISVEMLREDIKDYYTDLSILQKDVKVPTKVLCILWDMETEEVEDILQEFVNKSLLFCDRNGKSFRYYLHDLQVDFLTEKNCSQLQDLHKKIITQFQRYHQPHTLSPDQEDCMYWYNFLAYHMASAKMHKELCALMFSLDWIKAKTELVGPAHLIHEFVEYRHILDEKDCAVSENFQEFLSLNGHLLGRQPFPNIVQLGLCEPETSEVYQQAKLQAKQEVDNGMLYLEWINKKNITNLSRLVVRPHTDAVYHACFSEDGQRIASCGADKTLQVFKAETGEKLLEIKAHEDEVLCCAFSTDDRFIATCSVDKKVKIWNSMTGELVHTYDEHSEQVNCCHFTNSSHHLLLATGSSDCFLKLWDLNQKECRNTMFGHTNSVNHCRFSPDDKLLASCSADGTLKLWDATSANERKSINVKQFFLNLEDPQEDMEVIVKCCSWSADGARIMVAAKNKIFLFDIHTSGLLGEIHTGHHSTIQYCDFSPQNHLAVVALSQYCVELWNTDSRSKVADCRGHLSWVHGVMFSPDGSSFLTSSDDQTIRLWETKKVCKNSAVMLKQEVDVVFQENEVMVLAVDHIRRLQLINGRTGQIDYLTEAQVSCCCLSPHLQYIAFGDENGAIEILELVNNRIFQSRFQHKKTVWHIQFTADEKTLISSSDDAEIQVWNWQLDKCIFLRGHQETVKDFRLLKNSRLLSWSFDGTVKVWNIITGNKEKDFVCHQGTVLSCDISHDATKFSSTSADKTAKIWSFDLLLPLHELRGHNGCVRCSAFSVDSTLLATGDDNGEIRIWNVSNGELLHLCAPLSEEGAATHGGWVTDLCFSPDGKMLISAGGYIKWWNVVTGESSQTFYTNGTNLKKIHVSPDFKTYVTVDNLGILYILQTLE
# [5] = reduced cellular PGC1a acetyl-lysine signal – cell-based, cherry-picked samples, dose response (AID 720514); type: functional;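 note: potency may reflect raised or lowered acetylation signal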
# [6] = activation of miR-122 Renilla sensor silencing – cell-based, Huh7 psiCHECK-miR122, Renilla luciferase, cherry-picked, dose response (AID 651956); type: functional;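 note: huh7 hepatoma cells stably carrying a psiCHECK-2 miR-122 sensor plasmid; renilla luciferase signal reporting endogenous miR-122 activity after 48 h compound exposure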
# [7] = general mammalian cell viability loss – inhibitor set, cherry-pick, set 2, cytotoxicity control for miR-122 modulator project, dose response (AID 720697); type: functional, cell-based
# [8] = toxicity toward HepG2 liver cells – cell-based, plate reader, cherry-pick, antagonist series, cytotoxicity control, dose response (AID 743416); type: functional
# [9] = molecular target: T6, Rac GTPase-activating protein 1 (Homo sapiens, UniProt Q9H0H5); test: blockers of MgcRacGAP-driven Rac1 GTP hydrolysis – biochemical, ADP Hunter fluorescence, primary and confirmatory, confirmation (AID 624330); type: functional
# T6 sequence (Q9H0H5 whole entry): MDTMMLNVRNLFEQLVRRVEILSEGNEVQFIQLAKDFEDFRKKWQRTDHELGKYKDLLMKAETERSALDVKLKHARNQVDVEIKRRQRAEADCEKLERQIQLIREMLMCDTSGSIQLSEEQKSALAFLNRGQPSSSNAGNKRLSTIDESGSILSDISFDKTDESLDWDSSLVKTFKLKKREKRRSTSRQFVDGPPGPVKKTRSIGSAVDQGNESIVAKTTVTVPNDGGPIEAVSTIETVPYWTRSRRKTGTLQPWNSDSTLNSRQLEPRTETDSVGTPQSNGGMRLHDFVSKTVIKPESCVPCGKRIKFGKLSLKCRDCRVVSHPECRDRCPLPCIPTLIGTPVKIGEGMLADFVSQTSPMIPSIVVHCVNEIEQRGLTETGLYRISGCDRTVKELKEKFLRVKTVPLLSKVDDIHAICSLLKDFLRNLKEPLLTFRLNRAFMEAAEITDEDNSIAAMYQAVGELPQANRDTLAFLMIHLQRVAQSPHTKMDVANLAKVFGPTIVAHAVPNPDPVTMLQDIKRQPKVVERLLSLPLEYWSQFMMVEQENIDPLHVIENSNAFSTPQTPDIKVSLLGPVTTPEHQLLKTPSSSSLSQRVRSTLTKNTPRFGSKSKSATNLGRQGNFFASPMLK
# [10] = viability loss in HeLa cells – cytotoxicity control for MgcRacGAP inhibitor project, dose response (AID 624300); type: functional
# [11] = viability loss in HEK293 cells – cell-based, plate reader, cherry-picked samples, cytotoxicity control, dose response (AID 743446); type: functional
# [12] = A549 cell cytotoxicity, dose response, cytotoxicity control, plate reader, cherry-pick, antagonist series (AID 743412); type: functional, cell-based
# [13] = Fluorescence-based cell-based high throughput dose response assay for inhibitors of the interaction of nucleotide-binding oligomerization domain containing 2 (NOD2) and the receptor-interacting serine-threonine kinase 2 (RIPK2).; type: functional, Homo sapiens; conditions: Homo sapiens
# [14] = non-specific 3'UTR reporter inhibition in Clone20-Shn3RL – cell-based, Renilla luciferase, cherry-picked, counter-screen for Shn3 inhibitor project, dose response (AID 624133); type: functional
# [15] = loss of viability in HepG2 cells – cell-based, CellTiter-Glo, cherry-picked, cytotoxicity control for Shn3 inhibitor project, dose response (AID 624134); type: functional
# [16] = blockers of bursicon-stimulated LGR2 cAMP reporter – cell-based, HEK293, CRE-luciferase reporter, cherry pick, set 2, dose response (AID 743343); type: functional;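 note: transfected cells were stimulated with diluted bursicon conditioned medium after compound addition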
# [17] = blockade of melanocortin 4 receptor signaling – cell-based, plate reader, cherry pick, counter-screen for LGR2 antagonist project, dose response (AID 743444); type: functional;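 note: transfected HEK 293 cells stimulated with alpha-MSH peptide; potency of inhibitors of the alpha-MSH evoked signal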
# Paired box protein Pax-8 = Paired box protein Pax-8 (Homo sapiens, UniProt Q06710); test: PAX8 transcriptional activity inhibition in RMG-I – RMG-I cells, luciferase, cherry-pick, dose response (AID 687027); type: functional, cell-based;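 note: luciferase reporter driven by Pax8 target thyroperoxidase promoter measured by SteadyGlo luminescence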
# Sequence of Paired box protein Pax-8 (Q06710 whole entry): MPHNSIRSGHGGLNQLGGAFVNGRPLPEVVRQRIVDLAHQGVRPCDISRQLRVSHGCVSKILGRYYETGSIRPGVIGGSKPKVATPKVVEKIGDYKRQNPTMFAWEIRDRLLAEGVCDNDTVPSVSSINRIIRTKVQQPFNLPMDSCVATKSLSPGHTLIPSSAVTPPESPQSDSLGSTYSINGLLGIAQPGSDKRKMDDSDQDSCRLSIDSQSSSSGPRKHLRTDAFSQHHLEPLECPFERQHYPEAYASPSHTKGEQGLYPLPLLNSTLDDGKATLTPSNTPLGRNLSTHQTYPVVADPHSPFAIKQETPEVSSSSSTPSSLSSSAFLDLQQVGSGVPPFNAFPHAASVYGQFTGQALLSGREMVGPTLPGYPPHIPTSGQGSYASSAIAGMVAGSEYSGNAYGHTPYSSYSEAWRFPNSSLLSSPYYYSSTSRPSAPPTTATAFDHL
# [18] = reduction of Shn3 3'UTR-driven luciferase in osteoblasts – cell-based, Clone20 osteoblasts, firefly luciferase, cherry-picked, dose response (AID 624132); type: functional;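 note: firefly luciferase luminescence from reporter carrying the Shn3 3'UTR in osteoblasts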
# T1 sequence (Q92731 whole entry): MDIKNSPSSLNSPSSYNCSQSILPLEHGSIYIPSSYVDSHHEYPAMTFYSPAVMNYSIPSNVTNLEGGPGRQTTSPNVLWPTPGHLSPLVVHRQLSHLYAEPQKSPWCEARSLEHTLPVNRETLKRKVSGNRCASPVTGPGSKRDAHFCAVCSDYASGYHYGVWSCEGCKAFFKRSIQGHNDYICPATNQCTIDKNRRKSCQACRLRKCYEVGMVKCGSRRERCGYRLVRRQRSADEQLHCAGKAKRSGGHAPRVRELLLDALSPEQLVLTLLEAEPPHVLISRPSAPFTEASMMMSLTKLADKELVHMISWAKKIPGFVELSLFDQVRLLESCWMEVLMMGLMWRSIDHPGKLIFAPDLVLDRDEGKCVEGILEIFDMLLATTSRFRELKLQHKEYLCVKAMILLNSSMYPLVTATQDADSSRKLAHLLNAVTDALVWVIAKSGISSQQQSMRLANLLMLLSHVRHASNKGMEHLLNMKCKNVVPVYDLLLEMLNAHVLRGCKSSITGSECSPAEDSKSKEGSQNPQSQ
compound,measurement,setting,value
O=C(CSc1nnc(Nc2ccccc2F)s1)NCc1ccco1,IC50,Estrogen receptor beta [1],13.7 µM (active)
same,IC50,Estrogen receptor beta [2],0.142 µM (not active)
[O-][n+]1c2c([n+]([O-])c3cc(Br)ccc31)CCC2,IC50,Protein Tat,8.44 µM (inconclusive)
CCOc1ccc2[nH]c(=O)c(CN(Cc3ccco3)C(=O)c3ccc(Br)cc3)cc2c1,IC50,Protein Tat,> 100 µM (active)
N#CC(C(=O)Nc1ccccc1)=C1CCCCC1,IC50,Estrogen receptor beta [1],> 50 µM (not active)
NC(=O)Cc1c[nH]c2cccc(O)c12,IC50,Estrogen receptor beta [2],> 50 µM (not active)
Nc1ccc(Oc2ncccn2)cc1,EC50,Protein RecA,13.8 µM (active)
same,AC50,[3],29.6 µM (active)
same,IC50,[4],25.7 µM (active)
same,IC50,Protein Tat,> 100 µM (active)
O=S(=O)(Nc1ccc(N2CCOCC2)cc1)c1cccs1,IC50,Estrogen receptor beta [2],> 50 µM (not active)
O=C(CSc1nc2cc(Cl)ccc2s1)NCC1CCCO1 (stereo not drawn),AC50,[5],30.5 µM (active)
C[C@@H]1CCCCO[C@H](CN(C)CC2CCCCC2)[C@H](C)CN([C@H](C)CO)C(=O)c2cc(NC(=O)Nc3ccc4c(c3)OCO4)ccc2O1,AC50,[6],16.2 µM (active)
same,AC50,[7],4.39 µM (active)
COc1cccc(CN2C[C@@H]3N[C@H](C2)[C@@H]3c2ccc(-c3ccccc3OC)cc2)c1,AC50,[5],28.5 µM (active)
CCC1CN2CCc3cc(OC)c(OC)cc3C2CC1CC1NCCc2c1[nH]c1ccc(O)cc21 (stereo not drawn),AC50,[5],0.471 µM (active)
same,AC50,[8],0.601 µM (active)
same,IC50,[9],70.2 µM (active)
same,CC50,[10],1.61 µM (active)
same,AC50,[11],0.153 µM (active)
same,AC50,[12],0.075 µM (active)
same,IC50,[13],49.8 µM (inactive)
same,AC50,[14],0.658 µM (active)
same,AC50,[15],18 µM (active)
same,AC50,[16],0.219 µM (active)
same,AC50,[17],0.209 µM (active)
same,AC50,Paired box protein Pax-8,< 0.26 µM (active)
same,AC50,[18],< 0.26 µM (active)

# — ChEMBL document CHEMBL1201862, “PubChem BioAssay data set” (2004)
